{"source": "patent US6627657B1", "about": "(priority 2000, dated 2003)", "tested_on": "Zygosaccharomyces bailii ATCC 60483", "format": "cell-based", "settings": "30 seconds", "protocol": "The rate at which a composition of the invention killed a test organism was measured by inoculating use solutions with a test organism and then quantifying survivors after various exposure times. Ninety-nine mL of each use solution was transferred to a 250 mL Erlenmeyer flask and allowed to equilibrate to test temperature. The liquid in the flask was swirled vigorously in a rapid circular motion and 1 mL of a suspension of the test organism was added.\nAfter the exposure time, 1 mL quantities of the use solution/test organism mixture were transferred to 9 mL of the use-solution neutralizer. One mL quantities of the neutralizer were pour-plated using the plating medium. Serial 10-fold or 100-fold dilutions of the neutralizer solution were also plated. Plates were incubated and then surviving microorganisms were counted. The Log10 reduction of the test organism due to the use solution was determined by comparing reduction to an untreated control set (referred to as the Inoculum Numbers).\nThe test method was carried out as described in Example 5.\nTo determine the antifungal activity of hydrogen peroxide and peroxyacetic independently and in combination with a quaternary ammonium compound, the following experimental perimeters were used. The test organism studied was Zygosaccharomyces bailii ATCC 60483.\nThe test temperature used was 25° C., and the exposure time was 30 seconds. The use-solution neutralizer used was 1% sodium thiosulfate/1% peptone/0.025% catalase (for POAA, H2O2), Chambers neutralizer (for quaternary ammonium compound), and 1:1 mixture of the above (for POAA/H2O2/quaternary ammonium compound).\nThe microorganisms were plated on Sabourad dextrose agar and incubated for 4 days at 26° C.", "note": "Like-named read-outs stand apart in the source and are kept apart here.", "data": [{"compound": "CCCCCCCCCC[N+](C)(C)CCCCCCCCCC.[Cl-]", "note": "[Didecyl Dimethyl Ammonium Chloride]", "values": [{"measurement": "Log Reduction", "setting": "20 ppm, pH 3, 25° C.", "result": 0.00}, {"measurement": "Survivors", "setting": "20 ppm, pH 3, 25° C.", "result": "9.4 × 10^6 cfu/ml"}, {"measurement": "Log Reduction", "setting": "20 ppm, pH 5, 25° C.", "result": 0.02}, {"measurement": "Survivors", "setting": "20 ppm, pH 5, 25° C.", "result": "7.1 × 10^6 cfu/ml"}, {"measurement": "Log Reduction", "setting": "20 ppm, pH 7, 25° C.", "result": 0.05}, {"measurement": "Survivors", "setting": "20 ppm, pH 7, 25° C.", "result": "6.6 × 10^6 cfu/ml"}, {"measurement": "Log Reduction", "setting": "20 ppm, pH 9, 25° C.", "result": 0.18}, {"measurement": "Survivors", "setting": "20 ppm, pH 9, 25° C.", "result": "4.9 × 10^6 cfu/ml"}, {"measurement": "Log Reduction", "setting": "20 ppm, pH 11, 25° C.", "result": 1.69}, {"measurement": "Survivors", "setting": "20 ppm, pH 11, 25° C.", "result": "1.5 × 10^5 cfu/ml"}]}, {"compound": "OO", "note": "[Hydrogen Peroxide]", "values": [{"measurement": "Log Reduction", "setting": "532 ppm, pH 3, 25° C.", "result": 0.00}, {"measurement": "Survivors", "setting": "532 ppm, pH 3, 25° C.", "result": "7.5 × 10^6 cfu/ml"}, {"measurement": "Log Reduction", "setting": "532 ppm, pH 5, 25° C.", "result": 0.00}, {"measurement": "Survivors", "setting": "532 ppm, pH 5, 25° C.", "result": "9.9 × 10^6 cfu/ml"}, {"measurement": "Log Reduction", "setting": "532 ppm, pH 7, 25° C.", "result": 0.00}, {"measurement": "Survivors", "setting": "532 ppm, pH 7, 25° C.", "result": "7.9 × 10^6 cfu/ml"}, {"measurement": "Log Reduction", "setting": "532 ppm, pH 9, 25° C.", "result": 0.04}, {"measurement": "Survivors", "setting": "532 ppm, pH 9, 25° C.", "result": "6.8 × 10^6 cfu/ml"}, {"measurement": "Log Reduction", "setting": "532 ppm, pH 11, 25° C.", "result": 0.06}, {"measurement": "Survivors", "setting": "532 ppm, pH 11, 25° C.", "result": "6.5 × 10^6 cfu/ml"}]}]}
